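A five-concentration, 48-hour dose response in 96-well plates underlies each endpoint, interpolated linearly between surrounding concentrations. At the TGI there is no net growth.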 Active and inactive are the calls of the source. Cut-off read from the data, not from the text of the source: active = GI50 below about 0.43 µM; inactive = the rest.
How the values were obtained:
Experiment in all cases: NCI tumour cell line growth inhibition, 48 h
U251 CNS = system: U251 CNS
KM12 colon = system: KM12 colon
ACHN renal = system: ACHN renal
LXFL 529 NSCLC = system: LXFL 529 NSCLC
SNB-19 CNS = system: SNB-19 CNS
SNB-78 CNS = system: SNB-78 CNS
M14 melanoma = system: M14 melanoma
DLD-1 colon = system: DLD-1 colon
HL-60(TB) leukemia = system: HL-60(TB) leukemia
EKVX NSCLC = system: EKVX NSCLC
NCI-H522 lung = system: NCI-H522 lung
SNB-75 CNS = system: SNB-75 CNS
SN12C renal = system: SN12C renal
SK-MEL-28 melanoma = system: SK-MEL-28 melanoma
TK-10 renal = system: TK-10 renal
HCT-15 colon = system: HCT-15 colon
NCI-H460 lung = system: NCI-H460 lung
UACC-257 melanoma = system: UACC-257 melanoma
COLO 205 colon = system: COLO 205 colon
MOLT-4 leukemia = system: MOLT-4 leukemia
UACC-62 melanoma = system: UACC-62 melanoma
CAKI-1 renal = system: CAKI-1 renal
SF-295 CNS = system: SF-295 CNS
CCRF-CEM leukemia = system: CCRF-CEM leukemia
OVCAR-4 ovarian = system: OVCAR-4 ovarian
RXF 393 renal = system: RXF 393 renal
HCT-116 colon = system: HCT-116 colon
M19-MEL melanoma = system: M19-MEL melanoma
SK-OV-3 ovarian = system: SK-OV-3 ovarian
UO-31 renal = system: UO-31 renal
XF 498 CNS = system: XF 498 CNS
A498 renal = system: A498 renal
HT29 colon = system: HT29 colon
SR leukemia = system: SR leukemia
OVCAR-5 ovarian = system: OVCAR-5 ovarian
RPMI-8226 leukemia = system: RPMI-8226 leukemia
OVCAR-8 ovarian = system: OVCAR-8 ovarian
A549 NSCLC = system: A549 NSCLC
HOP-62 NSCLC = system: HOP-62 NSCLC
DMS 273 small cell lung = system: DMS 273 small cell lung
SF-268 CNS = system: SF-268 CNS
SK-MEL-2 melanoma = system: SK-MEL-2 melanoma
HOP-92 NSCLC = system: HOP-92 NSCLC
SK-MEL-5 melanoma = system: SK-MEL-5 melanoma
KM20L2 colon = system: KM20L2 colon
NCI-H23 lung = system: NCI-H23 lung
SW-620 colon = system: SW-620 colon
NCI-H226 lung = system: NCI-H226 lung
LOX IMVI melanoma = system: LOX IMVI melanoma
IGROV1 ovarian = system: IGROV1 ovarian
DMS 114 small cell lung = system: DMS 114 small cell lung
K-562 leukemia = system: K-562 leukemia
SF-539 CNS = system: SF-539 CNS
HCC-2998 colon = system: HCC-2998 colon
786-0 renal = system: 786-0 renal
OVCAR-3 ovarian = system: OVCAR-3 ovarian
MALME-3M melanoma = system: MALME-3M melanoma

Measured: TGI

O=C(Nc1ccc(Cl)c(Cl)c1)C(=O)C(C(=O)c1ccccc1F)C1OC(=O)c2ccccc21 (stereo not drawn)
60.2 µM: SN12C renal
37 µM: KM12 colon
62.3 µM: SW-620 colon
33.1 µM: COLO 205 colon
73.1 µM: SNB-78 CNS
38.2 µM: SK-MEL-2 melanoma
37.2 µM: UO-31 renal
50.9 µM: CCRF-CEM leukemia
46.9 µM: DMS 273 small cell lung
41.7 µM: M19-MEL melanoma
55.1 µM: KM20L2 colon
79.5 µM: XF 498 CNS
75.2 µM: SK-MEL-28 melanoma
55.9 µM: RPMI-8226 leukemia
80.2 µM: CAKI-1 renal
35.5 µM: HCT-15 colon
30.4 µM: HCT-116 colon
75.9 µM: NCI-H23 lung
76.2 µM: HOP-62 NSCLC
46.4 µM: DMS 114 small cell lung
47.8 µM: SNB-19 CNS
28.3 µM: UACC-62 melanoma
93.8 µM: TK-10 renal
> 100 µM: ACHN renal | LXFL 529 NSCLC | DLD-1 colon | UACC-257 melanoma | MOLT-4 leukemia | SF-295 CNS | OVCAR-4 ovarian | A498 renal | SR leukemia | OVCAR-5 ovarian | HOP-92 NSCLC | IGROV1 ovarian | K-562 leukemia
41.8 µM: RXF 393 renal
27.3 µM: NCI-H522 lung
41.2 µM: HL-60(TB) leukemia
68.6 µM: EKVX NSCLC
88.8 µM: HT29 colon
32.7 µM: HCC-2998 colon
28.5 µM: OVCAR-8 ovarian
34.3 µM: M14 melanoma
43.8 µM: NCI-H460 lung
28.1 µM: U251 CNS | SF-539 CNS
92.1 µM: SF-268 CNS
58.8 µM: SNB-75 CNS
81.4 µM: A549 NSCLC
69.9 µM: SK-OV-3 ovarian
43.7 µM: NCI-H226 lung
50.4 µM: LOX IMVI melanoma
35.9 µM: SK-MEL-5 melanoma

C[C@@]1(C(=O)c2ccccc2)N(c2ccccc2)[C@@]1(C)C(=O)c1ccccc1
inactive: U251 CNS | KM12 colon | 786-0 renal | ACHN renal | LXFL 529 NSCLC | SNB-19 CNS | SNB-78 CNS | M14 melanoma | DLD-1 colon | HL-60(TB) leukemia | EKVX NSCLC | NCI-H522 lung | SNB-75 CNS | SN12C renal | TK-10 renal | HCT-15 colon | NCI-H460 lung | UACC-257 melanoma | COLO 205 colon | MOLT-4 leukemia | UACC-62 melanoma | CAKI-1 renal | SF-295 CNS | CCRF-CEM leukemia | RXF 393 renal | SK-OV-3 ovarian | UO-31 renal | XF 498 CNS | HT29 colon | SR leukemia | OVCAR-5 ovarian | RPMI-8226 leukemia | OVCAR-8 ovarian | A549 NSCLC | HOP-62 NSCLC | DMS 273 small cell lung | SF-268 CNS | SK-MEL-2 melanoma | HOP-92 NSCLC | OVCAR-3 ovarian | KM20L2 colon | NCI-H23 lung | SW-620 colon | NCI-H226 lung | LOX IMVI melanoma | IGROV1 ovarian | MALME-3M melanoma | DMS 114 small cell lung | K-562 leukemia | SF-539 CNS

CO/C(=N\N=Cc1ccccc1)c1ccncc1
97.1 µM: NCI-H226 lung
> 100 µM: U251 CNS | KM12 colon | ACHN renal | LXFL 529 NSCLC | SNB-19 CNS | SNB-78 CNS | M14 melanoma | DLD-1 colon | HL-60(TB) leukemia | EKVX NSCLC | NCI-H522 lung | SNB-75 CNS | SN12C renal | SK-MEL-28 melanoma | TK-10 renal | HCT-15 colon | NCI-H460 lung | UACC-257 melanoma | COLO 205 colon | MOLT-4 leukemia | UACC-62 melanoma | CAKI-1 renal | SF-295 CNS | CCRF-CEM leukemia | OVCAR-4 ovarian | HCT-116 colon | M19-MEL melanoma | SK-OV-3 ovarian | UO-31 renal | XF 498 CNS | A498 renal | HT29 colon | SR leukemia | OVCAR-5 ovarian | RPMI-8226 leukemia | OVCAR-8 ovarian | A549 NSCLC | HOP-62 NSCLC | DMS 273 small cell lung | SF-268 CNS | SK-MEL-2 melanoma | HOP-92 NSCLC | SK-MEL-5 melanoma | OVCAR-3 ovarian | KM20L2 colon | NCI-H23 lung | SW-620 colon | IGROV1 ovarian | MALME-3M melanoma | DMS 114 small cell lung | K-562 leukemia | SF-539 CNS | HCC-2998 colon
